The structures appear in SMILES notation.

Experiment [1] relates to isolated islets of Langerhans derived from human GPR40 gene transgenic mice of the 47M strain. As to the kind of experiment: Insulin secretion from isolated islets of Langerhans of human GPR40 gene transgenic mice (47M strain) with addition of palmitic acid. The format is cell-based. The note with it: transgenic mouse 47M strain islets; 0.5 mM palmitic acid, 11 mM glucose, cultured 1 hour; insulin corrected by DNA amount. The method, then: (§1) Starting at 8 week-old, transgenic mice of the 47M strain and 23F strain were fed with a low-fat diet (D12450B, 10 kcal % fat, manufactured by Research Diets, Inc.) or a high-fat diet (D12492, 60 kcal % fat, manufactured by Research Diets, Inc.) for 8 weeks. Each mouse at 16 week-old had the duodenal side ligated, and the common bile duct cannulated, and a 1 mg/ml collagenase solution (manufactured by Wako Pure Chemical) was injected into the mouse pancreas. The pancreas receiving the injection was excised, placed in a tube containing the same collagenase solution, and shaken at 37° C. for 20 minutes. Subsequently, the solution was vigorously mixed for 30 seconds, and a Quenching buffer solution (Hanks Balanced Salt Solution comprising 0.001% DNaseI and 25 mM HEPES) containing 10% FBS was added to make a total volume of 20 ml. The solution was transferred to a Petri dish, and washed twice with the Quenching buffer solution, after which islets of Langerhans were recovered using a pipette under a microscopy, and this was used as the test sample. […] Meanwhile, after cultivation, islets of Langerhans were disrupted by sonication using a sonicator (manufactured by M & S Instruments Trading Inc.), the amount of DNA was determined using a Quant-iT™ Picogreen ds DNA Assay kit (manufactured by Molecular Probes), and the amount of insulin secreted was corrected.

Experiment [2] has as its system isolated islets of Langerhans derived from control mice. As to the kind of experiment: Insulin secretion from isolated islets of Langerhans of control mice with addition of palmitic acid. It is filed as cell-based, mouse. To be noted: 0.5 mM palmitic acid, 11 mM glucose, cultured 1 hour, insulin corrected by DNA amount. The method, then:
as §1

As to `CCCCCCCCCCCCCCCC(=O)O` [palmitic acid], the “amount of insulin secreted, increase compared with the no-addition group” value in experiment [1] is “about 6 times”; in experiment [2], “about 1.5 times”.

(Values after patent US20090313709A1, “Genetically Modified Animal and Use Thereof” (priority 2006, published 2009).)
